From US20090221522A1, “METHODS TO CORRECT GENE SET EXPRESSION PROFILES TO DRUG SENSITIVITY” (The Johns Hopkins University, priority 2008, published 2009)

Tests used:
[1] = test system: direct-patient pancreatic cancer xenografts; assay: Xenograft treatment, relative tumor growth inhibition (TGI); type: in vivo, mice
From the text: Four- to six-week-old female athymic (nu/nu) mice were purchased from Harlan (Harlan Laboratories, Washington, D.C.). The research protocol was approved by the Johns Hopkins University Animal Use and Care Committee and animals were maintained in accordance to guidelines of the American Association of Laboratory Animal Care. Xenografts obtained from F1 mice were excised and cut into small ˜3×3×3 mm fragments and then implanted subcutaneously in a group of five to six mice for each patient, with two small fragments in each mouse (F2) as described above for the original carcinoma. Half of the rest of the carcinoma was cryopreserved in liquid nitrogen and the other half is processed for biological studies. When the carcinoma reached a size of 1,500 mm^3, they were excised, cut into ˜3×3×3 mm fragments, and transplanted to the final cohort of mice to be treated with the drugs (F3 and successive passages). Further details of the establishment of the direct-patient pancreatic cancer xenografts are described in Rubio-Viqueira B, Jimeno A, Cusatis G, et al. An In vivo Platform for Translational Drug Development in Pancreatic Cancer. Clin Cancer Res 2006 12:4652-61.
Gemcitabine (Eli Lilly, Indianapolis, Ind.) was dissolved in saline. In some embodiments, docetaxel (Sanofi-Aventis, Bridgewater, N.J.) was dissolved in 50% ethanol and 50% DMSO. In other embodiments, docetaxel (Sanofi-Aventis, Bridgewater, N.J.) was dissolved in ethanol/polysorbate 80 as a stock solution and diluted 10-fold in 5% glucose for in vivo studies. Temsirolimus (Wyeth Research, Colleville, Pa.) was dissolved in 10% ethanol, 10% pluronic, and 80% PBS. All drugs were freshly prepared and used at an injection volume of 0.2 mL/20 g body weight. Drug doses and treatment schedules were obtained from published studies.
Xenografts from this second mouse-to-mouse passage (F3) were allowed to grow to a size of ˜200 mm^3, at which time five-to-six mice were randomly assigned to control and treatment groups. […] For docetaxel treatment group, mice were treated with 20 mg/kg once a week via intraperitoneal injection. For temsirolimus treatment group, mice were treated with 20 mg/kg/day via intraperitoneal injection. Mice were treated for 21-28 days, monitored daily for signs of toxicity, and were weighed thrice a week. Tumor size was evaluated thrice a week by caliper measurements using the following formula: tumor volume=[length×width^2]/2 as reported by van de Vijver M J, He Y D, van't Veer L J, et al. A Gene-Expression Signature as a Predictor of Survival in Breast Cancer. N Engl J Med 2002 347:1999-2009.
(§1) Relative tumor growth index (TGI) was calculated as TGI=(Ti−T0/Ci−C0) if Ti>T0 (indicates tumor growth inhibition) and TGI=(Ti−T0) if Ti≦T0 (indicates tumor regression). T and C represent tumor size in the treated and control group at the last of experiment, respectively; T0 and C0 represent tumor size in the treated and control group at the start of treatment, respectively.

[2] = test system: patient-derived xenografts refractory to gemcitabine; assay: Pre-clinical second-line study in xenografts refractory to gemcitabine (TGI); type: in vivo, mice; conditions: for tumor volume change: second-line molecular mimicry choice (docetaxel)
Experimental: FIG. 11 illustrates a pre-clinical design.
FIG. 12 illustrates validation on the xenografts of FIG. 11 based on prediction according to the present invention. Four xenograft cases were used. […] A case is defined as a responder to the drug treatment if Tumor Growth Inhibition (TGI) is <20%. Negative TGI values indicate tumor regression.
as §1
Seven FDA approved anticancer agents (capecitabine, cisplatin, docetaxel, doxorubicin, etoposide, irinotecan and oxaliplatin) were used as potential second line of drugs for selection according to the present invention. The one-size-fits-all treatment was erlotinib, an FDA approved targeted therapy for advanced pancreatic cancer. See Moore M J, Goldstein D, Hamm J, et al. Erlotinib plus gemcitabine compared with gemcitabine alone in patients with advanced pancreatic cancer: a phase Ill trial of the National Cancer Institute of Canada Clinical Trials Group. J Clin Oncol 25:1960-06 2007. […] Xenograft models of these cases were randomly assigned to (i) control, (ii) erlotinib arm (one-size-fits-all second line treatment) and (iii) molecular mimicry arm (i.e., drug selection according to the present invention). For the molecular mimicry arm, the baseline gene expression profiles of these cases were connected the NCI reference panel using GS-CMAP, and one of the seven anticancer agents was assigned to the case based on comparing the GI50 among these drugs. Molecular mimicry predicted that JH033 and JH034 are sensitive to docetaxel, PANC185 is sensitive to irinotecan and PANC219 is sensitive to doxorubicin. These cases were treated with the molecular mimicry choice of drugs and tumor volumes were measured. At the end of the experiment, xenografts treated with molecular mimicry choice of drugs had higher tumor growth inhibition than their litter mates treated with erlotinib (FIGS. 12 and 13).

`CO[C@H]1C[C@@H]2CC[C@@H](C)[C@@](O)(O2)C(=O)C(=O)N2CCCC[C@H]2C(=O)O[C@H]([C@H](C)C[C@@H]2CC[C@@H](OC(=O)C(C)(CO)CO)[C@H](OC)C2)CC(=O)[C@H](C)/C=C(\C)[C@@H](O)[C@@H](OC)C(=O)[C@H](C)C[C@H](C)/C=C/C=C/C=C/1C` [temsirolimus] was tested, and the TGI ([1]; xenograft JH024, after temsirolimus treatment) was 94%, the “xenograft response (sensitive/resistant)” value ([1]; xenograft JH024, temsirolimus) was “resistant” and the TGI ([1]; xenograft PANC219, after temsirolimus treatment) was −23%. For the same molecule, the “xenograft response (sensitive/resistant)” value ([1]; xenograft PANC219, temsirolimus) was “sensitive”.
In the case of `C#Cc1cccc(Nc2ncnc3cc(OCCOC)c(OCCOC)cc23)c1` [erlotinib], the “median TGI” value ([2]; four xenograft cases (PANC185, PANC219, JH033, JH034)) is reported as 33%, the “mean TGI %” value ([2]; four xenograft cases, second-line arm) is reported as 30% and the “responders (TGI <20%)” value ([2]; of four xenograft cases, second-line treatment) is reported as “only one xenograft responded”.
For `CC(=O)O[C@@]12CO[C@@H]1C[C@H](O)[C@@]1(C)C(=O)[C@H](O)C3=C(C)[C@@H](OC(=O)[C@H](O)[C@@H](NC(=O)OC(C)(C)C)c4ccccc4)C[C@@](O)([C@@H](OC(=O)c4ccccc4)[C@H]21)C3(C)C` [docetaxel], the tumor volume change ([2]; xenograft JH033) was “Regression in tumor volume”, the tumor volume change ([2]; xenograft JH034) was “Regression in tumor volume” and the “xenograft response (sensitive/resistant)” value ([1]; xenograft PANC185, docetaxel) was “resistant”. The TGI ([1]; xenograft PANC185, docetaxel for 21 days) was 83%, the “xenograft response (sensitive/resistant)” value ([1]; xenograft PANC215, docetaxel) was “resistant” and the TGI ([1]; xenograft PANC215, docetaxel for 21 days) was 41%. The “xenograft response (sensitive/resistant)” value ([1]; xenograft PANC265, docetaxel) was “sensitive” and the TGI ([1]; xenograft PANC265, docetaxel for 21 days) was −79%.
